{"source": "paper PMC7271629", "about": "(ACS chemical biology, 2020)", "key": {"[1]": {"tested_on": "c-Myc expression in K562 chronic myelogenous leukemia cells", "experiment": "c-Myc expression in K562 cells", "format": "cell-based, human"}, "[2]": {"tested_on": "BD1 and BD2 within a BET protein", "settings": "cited from earlier work"}}}
{"smiles": "Cc1sc2c(c1C)C(c1ccc(Cl)cc1)=N[C@@H](CC(=O)OC(C)(C)C)c1nnc(C)n1-2", "note": "[JQ1]", "values": [{"measurement": "effect on c-Myc expression", "setting": "[1]", "result": "attenuated c-Myc expression"}]}
{"smiles": "Cc1sc2c(c1C)C(c1ccc(Cl)cc1)=N[C@@H](CC(=O)NCCOCCOCCOCCOCCOCCOCCOCCNC(=O)C[C@@H]1N=C(c3ccc(Cl)cc3)c3c(sc(C)c3C)-n3c(C)nnc31)c1nnc(C)n1-2", "note": "[MT1]", "values": [{"measurement": "affinity of bivalent engagement of BD1 and BD2", "setting": "[2]", "result": "subnanomolar"}]}
